Measured values from ChEMBL document CHEMBL1143262, “1-Oxo-3-substitute-isothiochroman-4-carboxylic acid compounds: synthesis and biological activities of FAS inhibition” (Bioorg Med Chem Lett, 2009).

What was measured:
[1] = Cytotoxicity against HLF by MTT assay; settings: human, HLF cells; read-out: TC50 (the source's name)
[2] = test system: fatty acid synthase; assay: Therapeutic index, ratio of TC50 for HLF to IC50 for Sprague-Dawley rat liver fatty acid synthase; settings: human (HLF cells), HLF cells versus rat liver fatty acid synthase
[3] = target: Fatty acid synthase (Rattus norvegicus) (UniProt P12785); assay: Inhibition of Sprague-Dawley rat liver fatty acid synthase at 60 umol
Sequence of Fatty acid synthase (Rattus norvegicus) (P12785 whole entry): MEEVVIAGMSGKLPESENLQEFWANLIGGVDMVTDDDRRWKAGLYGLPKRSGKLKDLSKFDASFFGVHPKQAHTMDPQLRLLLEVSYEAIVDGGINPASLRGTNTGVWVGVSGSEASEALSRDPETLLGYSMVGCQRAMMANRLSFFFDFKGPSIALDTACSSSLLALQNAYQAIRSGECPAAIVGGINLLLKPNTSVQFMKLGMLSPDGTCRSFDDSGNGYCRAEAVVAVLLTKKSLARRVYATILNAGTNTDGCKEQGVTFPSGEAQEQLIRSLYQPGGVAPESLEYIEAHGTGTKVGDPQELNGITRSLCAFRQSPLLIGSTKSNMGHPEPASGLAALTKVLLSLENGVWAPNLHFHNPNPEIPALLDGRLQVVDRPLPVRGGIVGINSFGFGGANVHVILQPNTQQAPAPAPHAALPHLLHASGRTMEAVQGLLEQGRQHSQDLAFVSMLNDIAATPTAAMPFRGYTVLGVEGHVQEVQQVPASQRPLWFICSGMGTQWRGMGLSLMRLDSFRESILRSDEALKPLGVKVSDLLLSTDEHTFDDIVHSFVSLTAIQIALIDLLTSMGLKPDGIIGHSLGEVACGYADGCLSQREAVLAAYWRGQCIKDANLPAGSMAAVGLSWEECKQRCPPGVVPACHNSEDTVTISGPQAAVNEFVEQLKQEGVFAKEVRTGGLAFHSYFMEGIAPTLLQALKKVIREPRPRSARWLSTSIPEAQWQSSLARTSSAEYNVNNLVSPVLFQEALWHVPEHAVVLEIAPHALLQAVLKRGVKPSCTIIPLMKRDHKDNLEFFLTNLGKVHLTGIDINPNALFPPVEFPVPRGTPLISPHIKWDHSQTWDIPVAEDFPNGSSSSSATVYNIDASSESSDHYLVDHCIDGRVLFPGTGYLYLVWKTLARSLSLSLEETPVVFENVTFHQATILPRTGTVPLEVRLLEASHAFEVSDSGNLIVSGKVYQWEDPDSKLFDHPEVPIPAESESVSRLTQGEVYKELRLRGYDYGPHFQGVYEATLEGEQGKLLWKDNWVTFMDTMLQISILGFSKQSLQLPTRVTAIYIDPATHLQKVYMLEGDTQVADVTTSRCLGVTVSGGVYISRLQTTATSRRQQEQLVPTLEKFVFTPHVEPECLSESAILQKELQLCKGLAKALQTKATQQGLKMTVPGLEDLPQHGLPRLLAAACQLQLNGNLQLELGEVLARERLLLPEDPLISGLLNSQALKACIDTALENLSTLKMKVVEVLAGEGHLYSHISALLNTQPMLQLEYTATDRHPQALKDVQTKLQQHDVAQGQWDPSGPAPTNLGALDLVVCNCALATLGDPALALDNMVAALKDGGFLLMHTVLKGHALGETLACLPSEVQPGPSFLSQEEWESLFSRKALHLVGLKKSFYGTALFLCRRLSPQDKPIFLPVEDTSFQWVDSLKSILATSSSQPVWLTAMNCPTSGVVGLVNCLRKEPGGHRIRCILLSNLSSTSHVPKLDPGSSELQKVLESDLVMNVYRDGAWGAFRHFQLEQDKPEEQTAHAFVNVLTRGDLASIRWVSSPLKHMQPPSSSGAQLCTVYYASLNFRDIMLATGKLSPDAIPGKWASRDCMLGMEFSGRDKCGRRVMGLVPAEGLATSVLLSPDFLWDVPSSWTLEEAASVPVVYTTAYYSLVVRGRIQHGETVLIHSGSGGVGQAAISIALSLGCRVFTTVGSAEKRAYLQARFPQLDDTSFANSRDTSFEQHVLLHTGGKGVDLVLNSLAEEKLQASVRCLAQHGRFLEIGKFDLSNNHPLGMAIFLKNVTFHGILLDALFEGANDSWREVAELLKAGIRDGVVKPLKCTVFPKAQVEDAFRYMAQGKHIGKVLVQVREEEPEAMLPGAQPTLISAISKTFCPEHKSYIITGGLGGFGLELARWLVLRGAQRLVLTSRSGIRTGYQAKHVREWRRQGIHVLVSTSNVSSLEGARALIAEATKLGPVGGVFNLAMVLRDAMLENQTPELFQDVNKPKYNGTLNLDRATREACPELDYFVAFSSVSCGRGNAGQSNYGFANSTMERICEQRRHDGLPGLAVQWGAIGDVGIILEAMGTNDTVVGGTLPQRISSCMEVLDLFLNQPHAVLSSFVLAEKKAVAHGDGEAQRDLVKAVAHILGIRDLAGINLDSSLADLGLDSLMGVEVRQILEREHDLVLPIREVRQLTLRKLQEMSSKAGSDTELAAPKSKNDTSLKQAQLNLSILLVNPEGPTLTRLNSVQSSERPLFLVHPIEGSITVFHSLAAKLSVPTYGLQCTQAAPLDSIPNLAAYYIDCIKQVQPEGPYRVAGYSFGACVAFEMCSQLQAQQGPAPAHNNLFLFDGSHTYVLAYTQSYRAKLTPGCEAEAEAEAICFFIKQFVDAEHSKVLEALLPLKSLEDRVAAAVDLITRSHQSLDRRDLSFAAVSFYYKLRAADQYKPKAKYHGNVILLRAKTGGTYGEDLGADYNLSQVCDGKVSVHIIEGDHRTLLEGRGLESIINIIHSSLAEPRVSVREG

[4] = target: Fatty acid synthase (Rattus norvegicus, UniProt P12785); assay: Inhibition of Sprague-Dawley rat liver fatty acid synthase
Sequence of Fatty acid synthase (P12785 whole entry): as above

SMILES	CC50 [1] [µM]	selectivity ratio [2]	inhibition [3] [%]	IC50 [4] [µM]
CCCCCCCCCC1SC(=O)c2ccccc2[C@@H]1C(=O)O (stereo not given in full)	88.6	10.7	77.5	8.29
C=C1C(=O)O[C@H](CCCCCCCC)[C@H]1C(=O)O (relative stereo)	87.1	5.61	–	15.5
CCCCCCCCCC[C@H]1SC(=O)c2ccccc2[C@@H]1C(=O)O (relative stereo)	12	2.92	90.2	4.11
CCCCCCCCCCC[C@H]1SC(=O)c2ccccc2[C@@H]1C(=O)O (relative stereo)	9.67	2.67	95.7	3.62
CCCCCC[C@H]1SC(=O)c2ccccc2[C@@H]1C(=O)O (relative stereo)	> 200	–	40.4	36.7
CCCCCCC[C@H]1SC(=O)c2ccccc2[C@@H]1C(=O)O (relative stereo)	> 200	–	43.1	26.9
CCCCCCCC[C@H]1SC(=O)c2ccccc2[C@@H]1C(=O)O (relative stereo)	84.2	6.83	50.9	12.3
